What all share (format): in vivo
Assay [1] has as its system Cercospora beticola (leaf spot). Nature of the assay: Greenhouse Test 1, foliar spray fungicide screen (LEAF SPOT), host sugar beet. As to conditions: disease control rating, 400 ppm (+++ at 100 ppm).
Assay [2] relates to Southern corn rootworm (Diabrotica undecimpuctata howardi Barber). Nature of the assay: Mite/insect screen, soil treatment (CRW). Conditions: Diabrotica, percent mortality, soil treatment, read-out: CRW RESULTS %; for mortality at 12 ppm: CRW rate 12.00 ppm; for mortality at 24 ppm: CRW rate 24.00 ppm. The procedure, abridged: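 Five 2–3 instar larvae were placed on dry sandy soil with a presoaked corn seed after the soil had received 1 mL of compound solution and dried 6–12 h; cups were kept capped at 23°C. Mortality (%) and phytotoxicity were read after standard exposure. Formulation: acetone/alcohol with emulsifiers, water-diluted.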

Assay [3] concerns Twospotted spider mites (Tetranychus urticae Koch). Nature of the assay: Mite/insect screen, sprayed squash cotyledons (SM). Conditions: Tetranychus urticae, percent mortality, read-out: SM RESULTS %; for mortality at 200 ppm: spray rate 200 ppm; for mortality at 400 ppm: spray rate 400 ppm. In short, it runs like this: (§1)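 Compounds dissolved in acetone/alcohol with TOXIMUL R/S emulsifiers, diluted with water to test concentrations, and sprayed to runoff on both leaf surfaces at 10 psi, then dried 1 h. Excised treated squash leaves given southern armyworm larvae; aphid and spider mite tests on sprayed squash cotyledons. Percent mortality and phytotoxicity scored after standard exposure.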

Assay [4] has as its system Puccinia recondita tritici (leaf rust). Nature of the assay: Greenhouse Test 1, foliar spray fungicide screen (LEAF RUST), host wheat. Conditions: disease control rating, 400 ppm (+++ at 100 ppm).
For assay [5], the system named is Septoria tritici (leaf blotch). Nature of the assay: Greenhouse Test 1, foliar spray fungicide screen (LEAF BLOT), host wheat. As to conditions: disease control rating, 400 ppm (+++ at 100 ppm).
For assay [6], the system named is southern armyworm (Spodopetra eridania Cramer). The assay is described as follows: Mite/insect screen, sprayed squash leaves (SAW). Conditions: Spodoptera eridania, percent mortality, read-out: SAW RESULTS %; for mortality at 200 ppm: spray rate 200 ppm; for mortality at 400 ppm: spray rate 400 ppm. The procedure, abridged: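 Acetone/alcohol (50:50) + emulsifier blends 23 g/L and 13 g/L; water dilution to test concs. Spray both leaf surfaces to runoff, dry 1 h. For armyworm, 2 excised uninfested leaves into Petri dish with larvae. Readout: % mortality, phytotoxicity.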

The test system of assay [7] is Pseudoperonospora cubensis (downy mildew). The assay is described as follows: Greenhouse Test 1, foliar spray fungicide screen (DOWN MDEW), host squash. As to conditions: disease control rating, 400 ppm (+++ at 100 ppm).
The test system of assay [8] is Venturia inaequalis (apple scab). The assay is described as follows: Greenhouse Test 1, foliar spray fungicide screen (APPL SCAB), host apple seedling. As to conditions: disease control rating, 400 ppm (+++ at 100 ppm).
In assay [9] the test system is Erysiphe graminis tritici (powdery mildew). Nature of the assay: Greenhouse Test 1, foliar spray fungicide screen (POWD MDEW), host wheat. Conditions: disease control rating, 400 ppm (+++ at 100 ppm).
Assay [10] relates to Botrytis cinerea (gray mold). Nature of the assay: Greenhouse Test 1, foliar spray fungicide screen (GRAY MOLD), host grape berries. Conditions: disease control rating, 400 ppm (+++ at 100 ppm).
Assay [11] relates to melon aphids (Aphis gossypii Glover). Nature of the assay: Mite/insect screen, sprayed squash cotyledons (MA). Conditions: Aphis gossypii, percent mortality, read-out: MA RESULTS %; for mortality at 200 ppm: spray rate 200 ppm; for mortality at 400 ppm: spray rate 400 ppm. In short, it runs like this: as §1
Assay [12] relates to Pyricularia oryzae (rice blast). As to conditions: disease control rating, foliar spray, host rice; 400 ppm (+++ at 100 ppm).

For the compound `CC(=O)N(CCc1ccc2ccccc2c1)c1ncnc2ccccc12` [Example 81, N-[2-(2-naphthyl)ethyl]-N-4-quinazolinylacetamide], the “LEAF SPOT” value in assay [1] is “- (- = 0-19% control at 400 ppm)”. Moreover, in assay [2], the mortality at 12 ppm turned out to be 0% and the mortality at 24 ppm was 0%. In assay [3], the mortality at 200 ppm amounted to 50% and the mortality at 400 ppm was determined as 0%. For the same compound, the “LEAF RUST” value in assay [4] is on record as “+ (+ = 20-89% control at 400 ppm)”. The “LEAF BLOT” value in [5] is listed as “- (- = 0-19% control at 400 ppm)”. Further, in assay [6], the mortality at 200 ppm worked out at 0% and the mortality at 400 ppm was 0%. The “DOWN MDEW” value in assay [7] is “+ (+ = 20-89% control at 400 ppm)”. The “APPL SCAB” value in assay [8] is given as “+ (+ = 20-89% control at 400 ppm)”. In addition, the “POWD MDEW” value in [9] is “+ (+ = 20-89% control at 400 ppm)”. Also, the “GRAY MOLD” value in assay [10] is recorded as “- (- = 0-19% control at 400 ppm)”. In assay [11], the mortality at 200 ppm came out at 0% and the mortality at 400 ppm turned out to be 0%. The “RICE BLAST” value in assay [12] is recorded as “++ (++ = 90-100% control at 400 ppm)”.
On to `Fc1ccc(CCOc2ncnc3ccccc23)cc1` [Example 84, 4-[2-(4-fluorophenyl)ethoxy]quinazoline], for which, in assay [1], the “LEAF SPOT” value was “- (- = 0-19% control at 400 ppm)”. Besides, in [2], the mortality at 12 ppm is 0% and the mortality at 24 ppm was 40%. In assay [3], the mortality at 200 ppm worked out at 0% and the mortality at 400 ppm stood at 0%. For the same compound, the “LEAF RUST” value in assay [4] was “+++ (+++ = 90-100% control at 100 ppm)”. Besides, in assay [5], the “LEAF BLOT” value is recorded as “+ (+ = 20-89% control at 400 ppm)”. In addition, in [6], the mortality at 200 ppm came out at 0% and the mortality at 400 ppm came out at 0%. Besides, the “DOWN MDEW” value in assay [7] was “++ (++ = 90-100% control at 400 ppm)”. In assay [8], the “APPL SCAB” value is given as “++ (++ = 90-100% control at 400 ppm)”. In assay [9], the “POWD MDEW” value is recorded as “++ (++ = 90-100% control at 400 ppm)”. Further, the “GRAY MOLD” value in assay [10] is given as “- (- = 0-19% control at 400 ppm)”. Moreover, in assay [11], the mortality at 200 ppm was 0% and the mortality at 400 ppm was 0%. Further, in assay [12], the “RICE BLAST” value is given as “++ (++ = 90-100% control at 400 ppm)”.
Take `Cc1ccc(CCOc2ncnc3ccccc23)cc1` [Example 87, 4-[2-(4-methylphenyl)ethoxy]quinazoline]: the “LEAF SPOT” value in assay [1] is recorded as “+ (+ = 20-89% control at 400 ppm)”. For the same compound, the mortality at 12 ppm in assay [2] stood at 0%. Besides, the mortality at 24 ppm in assay [2] amounted to 0%. Also, the mortality at 200 ppm was 90% in assay [3], 0% in [6] and 100% in [11]. The mortality at 400 ppm in assay [3] was 90%; in assay [6] it was 50%; in assay [11], 100%. In assay [4], the “LEAF RUST” value was “++ (++ = 90-100% control at 400 ppm)”. In assay [5], the “LEAF BLOT” value was “- (- = 0-19% control at 400 ppm)”. In assay [7], the “DOWN MDEW” value is recorded as “+++ (+++ = 90-100% control at 100 ppm)”. Also, the “APPL SCAB” value in [8] was “- (- = 0-19% control at 400 ppm)”. The “POWD MDEW” value in [9] is listed as “++ (++ = 90-100% control at 400 ppm)”. The “GRAY MOLD” value in [10] is on record as “- (- = 0-19% control at 400 ppm)”. The “RICE BLAST” value in [12] was “+++ (+++ = 90-100% control at 100 ppm)”.
In the case of `c1ccc(-c2ccc(CCNc3ncnc4ccccc34)cc2)cc1` [Example 106, N-[2-(1,1'-biphenyl)-4-ylethyl]-4-quinazolinamine], in [1], the “LEAF SPOT” value is listed as “+ (+ = 20-89% control at 400 ppm)”. For the same compound, the mortality at 12 ppm in assay [2] turned out to be 0%. Moreover, in assay [2], the mortality at 24 ppm amounted to 0%. The mortality at 200 ppm in [3] was determined as 100%; in [6], 90%; in [11], 0%. The mortality at 400 ppm in [3], in [6] and in assay [11] was 80% throughout. In addition, in assay [4], the “LEAF RUST” value is listed as “+++ (+++ = 90-100% control at 100 ppm)”. In assay [5], the “LEAF BLOT” value is given as “+++ (+++ = 90-100% control at 100 ppm)”. Further, the “DOWN MDEW” value in assay [7] was “+++ (+++ = 90-100% control at 100 ppm)”. For the same compound, in [8], the “APPL SCAB” value is recorded as “+++ (+++ = 90-100% control at 100 ppm)”. In [9], the “POWD MDEW” value was “+++ (+++ = 90-100% control at 100 ppm)”. Also, the “GRAY MOLD” value in assay [10] is “- (- = 0-19% control at 400 ppm)”. Further, the “RICE BLAST” value in assay [12] is reported as “+++ (+++ = 90-100% control at 100 ppm)”.
On to `CC(=O)N(CCc1ccc(-c2ccccc2)cc1)c1ncnc2ccccc12` [Example 108, N-[2-(1,1'-biphenyl)-4-ylethyl]-N-(4-quinazolinyl)acetamide], for which the “LEAF SPOT” value in [1] was “++ (++ = 90-100% control at 400 ppm)”. In [2], the mortality at 12 ppm came out at 0% and the mortality at 24 ppm was found to be 0%. For the same compound, in [3], the mortality at 200 ppm was 60% and the mortality at 400 ppm was found to be 90%. In addition, the “LEAF RUST” value in [4] is on record as “+ (+ = 20-89% control at 400 ppm)”. For the same compound, in [5], the “LEAF BLOT” value is reported as “+++ (+++ = 90-100% control at 100 ppm)”. Besides, in [6], the mortality at 200 ppm came to 0% and the mortality at 400 ppm turned out to be 0%. Moreover, the “DOWN MDEW” value in [7] is recorded as “+++ (+++ = 90-100% control at 100 ppm)”. Besides, the “APPL SCAB” value in [8] is “- (- = 0-19% control at 400 ppm)”. Moreover, in assay [9], the “POWD MDEW” value is given as “+ (+ = 20-89% control at 400 ppm)”. Besides, the “GRAY MOLD” value in assay [10] is listed as “- (- = 0-19% control at 400 ppm)”. Besides, in assay [11], the mortality at 200 ppm came out at 30% and the mortality at 400 ppm came out at 20%. The “RICE BLAST” value in [12] is listed as “+++ (+++ = 90-100% control at 100 ppm)”.
On to `Clc1ccccc1OCCOc1ncnc2ccccc12` [Example 110, 4-[2-(2-chlorophenoxy)ethoxy]quinazoline], for which the “LEAF SPOT” value in assay [1] is given as “- (- = 0-19% control at 400 ppm)”. Moreover, the mortality at 12 ppm in assay [2] stood at 0%. The mortality at 24 ppm in assay [2] worked out at 0%. Further, the mortality at 200 ppm in assay [3], in assay [6] and in [11] was 0% in each case. For the same compound, the mortality at 400 ppm in [3], in assay [6] and in assay [11] was 0% in each case. Also, in [4], the “LEAF RUST” value is “++ (++ = 90-100% control at 400 ppm)”. The “LEAF BLOT” value in [5] is “- (- = 0-19% control at 400 ppm)”. Moreover, in assay [7], the “DOWN MDEW” value is given as “+ (+ = 20-89% control at 400 ppm)”. Further, the “APPL SCAB” value in assay [8] is on record as “- (- = 0-19% control at 400 ppm)”. Also, the “POWD MDEW” value in [9] is on record as “- (- = 0-19% control at 400 ppm)”. Further, the “GRAY MOLD” value in assay [10] was “- (- = 0-19% control at 400 ppm)”. Also, in assay [12], the “RICE BLAST” value is on record as “+ (+ = 20-89% control at 400 ppm)”.
